Results from patent US20240174624A1, “CHIRAL N-(1,3,4-OXADIAZOLE-2-YL)PHENYL CARBOXYLIC ACID AMIDES AND THEIR USE AS HERBICIDES” (Bayer Aktiengesellschaft, priority 2021, published 2024).

How the values were obtained:
[1] = system: VERPE; test: Post-emergence herbicidal action; assay type: in vivo, Veronica persica; details: assessed after about 3 weeks
Outline: (§1)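 One-leaf-stage greenhouse plants in sandy loam receive an aqueous spray of WP or EC preparations (600–800 l/ha water, 0.2% wetting agent). Assessment: visual percent damage compared with untreated controls after about 3 weeks.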

[2] = system: PHBPU; test: Post-emergence herbicidal action; assay type: in vivo, Pharbitis purpurea; details: assessed after about 3 weeks
Method: (§2) Seeds of monocotyledonous and dicotyledonous weed and crop plants are laid out in sandy loam soil in wood-fibre pots, covered with soil and cultivated in a greenhouse under good growth conditions. 2 to 3 weeks after sowing, the test plants are treated at the one-leaf stage. The compounds of the invention, formulated in the form of wettable powders (WP) or as emulsion concentrates (EC), are then sprayed onto the green parts of the plants in the form of an aqueous suspension or emulsion at a water application rate equating to 600 to 800 l/ha, with addition of 0.2% wetting agent. After the test plants have been left to stand in the greenhouse under optimal growth conditions for about 3 weeks, the action of the preparations is assessed visually in comparison to untreated controls (herbicidal action in percent (%): 100% activity=the plants have died, 0% activity=like control plants). […] The tables below illustrate, in an illustrative manner, the post-emergence herbicidal action of the compounds of the invention, the herbicidal activity being stated in percent.

[3] = system: ORYZA; test: Post-emergence damage to crop plants; assay type: in vivo, Oryza sativa; details: 80 g a.i./ha, comparative experiment
Method: as §2, with “percent. In the experiments that follow, the herbicidal action of the compounds of the invention and that of the corresponding known racemic compounds closest from WO2012126932 and WO2018202535 were compared under the above-specified conditions by the pre-emergence and post-emergence method. The example numbers given in the tables relate to the compounds disclosed in the respective documents.” for “percent.”

[4] = system: POLCO; test: Post-emergence herbicidal action; assay type: in vivo, Polygonum convolvulus; details: 20 g/ha, assessed after about 3 weeks
Method: as §2

[5] = system: AMARE; test: Pre-emergence herbicidal action; assay type: in vivo, Amaranthus retroflexus; details: scored after 3 weeks
Outline: (§3)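 Weed and crop seeds were sown in sandy loam, and WP or EC formulations were sprayed onto the covering soil at 600 to 800 l/ha water with 0.2% wetting agent. After 3 weeks in a greenhouse, damage was scored visually against untreated controls as percent activity (100% = plants dead).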

[6] = system: VIOTR; test: Pre-emergence herbicidal action; assay type: in vivo, Viola tricolor; details: scored after 3 weeks
Outline: as §3

[7] = system: SETVI; test: Pre-emergence herbicidal action; assay type: in vivo, Setaria viridis; details: scored after 3 weeks
Outline: (§4)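 Visual % damage relative to untreated controls after 3 weeks in the greenhouse (100% = plants died). Compounds, as WP or EC, were sprayed pre-emergence onto soil covering seeds sown in sandy loam, at a water rate of 600 to 800 l/ha plus 0.2% wetting agent.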

[8] = system: VIOTR; test: Post-emergence herbicidal action; assay type: in vivo, Viola tricolor; details: for Post-emergence action against VIOTR: assessed after about 3 weeks; for Herbicidal action against VIOTR: comparative experiment
Method: as §2, with “percent. In the experiments that follow, the herbicidal action of the compounds of the invention and that of the corresponding known racemic compounds closest from WO2012126932 and WO2018202535 were compared under the above-specified conditions by the pre-emergence and post-emergence method. The example numbers given in the tables relate to the compounds disclosed in the respective documents.” for “percent.”

[9] = system: AVEFA; test: Pre-emergence herbicidal action; assay type: in vivo, Avena fatua; details: 80 g/ha, scored after 3 weeks
Outline: as §4

[10] = system: PHBPU; test: Pre-emergence herbicidal action; assay type: in vivo, Pharbitis purpurea; details: 80 g/ha, scored after 3 weeks
From the text: (§5) Seeds of monocotyledonous and dicotyledonous weed plants and crop plants are laid out in sandy loam soil in wood-fibre pots and covered with soil. The compounds of the invention, formulated in the form of wettable powders (WP) or as emulsion concentrates (EC), are then applied to the surface of the covering soil in the form of an aqueous suspension or emulsion at a water application rate equivalent to 600 to 800 l/ha, with addition of 0.2% wetting agent. After the treatment, the pots are placed in a greenhouse and kept under good growth conditions for the trial plants. The damage to the test plants is scored visually after a test period of 3 weeks by comparison with untreated controls (herbicidal activity in percent (%): 100% activity=the plants have died, 0% activity=like control plants). […] The tables below illustrate, in an illustrative manner, the post-emergence herbicidal action of the compounds of the invention, the herbicidal activity being stated in percent.

[11] = system: AVEFA; test: Post-emergence herbicidal action; assay type: in vivo, Avena fatua; details: 20 g/ha, assessed after about 3 weeks
Method: as §2

[12] = system: ZEAMX; test: Pre-emergence damage to crop plants; assay type: in vivo, Zea mays; details: comparative experiment
Outline: as §4

[13] = system: TRZAS; test: Pre-emergence damage to crop plants; assay type: in vivo, Triticum aestiva; details: 80 g a.i./ha, comparative experiment
From the text: as §5, with “percent. In the experiments that follow, the herbicidal action of the compounds of the invention and that of the corresponding known racemic compounds closest from WO2012126932 and WO2018202535 were compared under the above-specified conditions by the pre-emergence and post-emergence method. The example numbers given in the tables relate to the compounds disclosed in the respective documents.” for “percent.”

[14] = system: MATIN; test: Post-emergence herbicidal action; assay type: in vivo, Matricaria inodora; details: assessed after about 3 weeks
Outline: (§6)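 Greenhouse plants in sandy loam treated at the one-leaf stage, 2–3 weeks after sowing, by spraying WP or EC formulations as aqueous suspension/emulsion at 600–800 l/ha with 0.2% wetting agent. Visual assessment after about 3 weeks versus untreated controls, as percent action (100% = plants dead, 0% = like control).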

[15] = system: ZEAMX; test: Post-emergence damage to crop plants; assay type: in vivo, Zea mays; details: 80 g a.i./ha, comparative experiment
Method: as §2, with “percent. In the experiments that follow, the herbicidal action of the compounds of the invention and that of the corresponding known racemic compounds closest from WO2012126932 and WO2018202535 were compared under the above-specified conditions by the pre-emergence and post-emergence method. The example numbers given in the tables relate to the compounds disclosed in the respective documents.” for “percent.”

[16] = system: POLCO; test: Pre-emergence herbicidal action; assay type: in vivo, Polygonum convolvulus; details: 80 g/ha, scored after 3 weeks
Outline: as §4

[17] = system: AMARE; test: Post-emergence herbicidal action; assay type: in vivo, Amaranthus retroflexus; details: assessed after about 3 weeks
Outline: as §6

[18] = system: MATIN; test: Pre-emergence herbicidal action; assay type: in vivo, Matricaria inodora; details: scored after 3 weeks
Outline: as §4

[19] = system: TRZAS; test: Post-emergence damage to crop plants; assay type: in vivo, Triticum aestiva; details: comparative experiment
Outline: as §1

[20] = system: SETVI; test: Post-emergence herbicidal action; assay type: in vivo, Setaria viridis; details: for Post-emergence action against SETVI: assessed after about 3 weeks
Outline: as §1

[21] = system: ORYZA; test: Pre-emergence damage to crop plants; assay type: in vivo, Oryza sativa; details: 80 g a.i./ha, comparative experiment
From the text: as §5, with “percent. In the experiments that follow, the herbicidal action of the compounds of the invention and that of the corresponding known racemic compounds closest from WO2012126932 and WO2018202535 were compared under the above-specified conditions by the pre-emergence and post-emergence method. The example numbers given in the tables relate to the compounds disclosed in the respective documents.” for “percent.”

[22] = system: ALOMY; test: Pre-emergence herbicidal action; assay type: in vivo, Alopecurus myosuroides; details: 80 g/ha, scored after 3 weeks
Outline: as §4

[23] = system: ECHCG; test: Post-emergence herbicidal action; assay type: in vivo, Echinochloa crus-galli; details: for Post-emergence action against ECHCG: assessed after about 3 weeks
Outline: as §1

[24] = system: ECHCG; test: Pre-emergence herbicidal action; assay type: in vivo, Echinochloa crus-galli; details: scored after 3 weeks
Outline: as §3

[25] = system: VERPE; test: Pre-emergence herbicidal action; assay type: in vivo, Veronica persica; details: scored after 3 weeks
Outline: as §4

[26] = system: GLXMA; test: Post-emergence damage to crop plants; assay type: in vivo, Glycine max; details: 5 g a.i./ha, comparative experiment
Method: as §2, with “percent. In the experiments that follow, the herbicidal action of the compounds of the invention and that of the corresponding known racemic compounds closest from WO2012126932 and WO2018202535 were compared under the above-specified conditions by the pre-emergence and post-emergence method. […]” for “percent.”

[27] = system: DIGSA; test: Post-emergence herbicidal action; assay type: in vivo, Digitaria sanguinalis; details: assessed after about 3 weeks
Method: as §2, with “percent. In the experiments that follow, the herbicidal action of the compounds of the invention and that of the corresponding known racemic compounds closest from WO2012126932 and WO2018202535 were compared under the above-specified conditions by the pre-emergence and post-emergence method. The example numbers given in the tables relate to the compounds disclosed in the respective documents.” for “percent.”

[28] = system: BRSNW; test: Pre-emergence damage to crop plants; assay type: in vivo, Brassica napus; details: 20 g a.i./ha, comparative experiment
From the text: as §5, with “percent. In the experiments that follow, the herbicidal action of the compounds of the invention and that of the corresponding known racemic compounds closest from WO2012126932 and WO2018202535 were compared under the above-specified conditions by the pre-emergence and post-emergence method. The example numbers given in the tables relate to the compounds disclosed in the respective documents.” for “percent.”

[29] = system: DIGSA; test: Pre-emergence herbicidal action; assay type: in vivo, Digitaria sanguinalis; details: scored after 3 weeks
From the text: as §5

Compound	Post-emergence action against VERPE ([1]; 20 g/ha) [%]	Post-emergence action against PHBPU ([2]; 20 g/ha) [%]	Pre-emergence action against AMARE ([5]; 20 g/ha) [%]	Pre-emergence action against AMARE ([5]; 80 g/ha) [%]	Pre-emergence action against VIOTR ([6]; 20 g/ha) [%]	Pre-emergence action against VIOTR ([6]; 80 g/ha) [%]	Pre-emergence action against SETVI ([7]; 20 g/ha) [%]	Pre-emergence action against SETVI ([7]; 80 g/ha) [%]	Post-emergence action against VIOTR ([8]; 5 g/ha) [%]	Post-emergence action against VIOTR ([8]; 20 g/ha) [%]	Pre-emergence action against AVEFA [9] [%]	Post-emergence action against AMARE ([17]; 5 g/ha) [%]	Post-emergence action against AMARE ([17]; 20 g/ha) [%]	Pre-emergence action against MATIN ([18]; 20 g/ha) [%]	Pre-emergence action against MATIN ([18]; 80 g/ha) [%]	Post-emergence action against SETVI ([20]; 5 g/ha) [%]	Post-emergence action against SETVI ([20]; 20 g/ha) [%]	Pre-emergence action against ALOMY [22] [%]	Post-emergence action against ECHCG ([23]; 20 g/ha) [%]	Pre-emergence action against ECHCG ([24]; 20 g/ha) [%]	other results
C[S+]([O-])c1c(C(F)(F)F)ccc(C(=O)Nc2nnco2)c1Cl (stereo in doubt) [Example I-1, 2-chloro-N-(1,3,4-oxadiazol-2-yl)-3-[(S)-methylsulfinyl]-4-(trifluoromethyl)benzamide]	90	100	100	100	100	100	80	100	100	100	80	100	100	100	100	80	100	80	100	100	Post-emergence action against PHBPU ([2]; 5 g/ha): 100%; Damage to ORYZA [3]: 70%; Post-emergence action against POLCO [4]: 80%; Post-emergence action against VIOTR ([8]; 1.25 g/ha): 90%; Pre-emergence action against PHBPU [10]: 100%; Post-emergence action against AVEFA [11]: 80%; Damage to ZEAMX ([12]; 320 g a.i./ha): 0%; Damage to TRZAS [13]: 30%; Post-emergence action against MATIN ([14]; 5 g/ha): 80%; Post-emergence action against MATIN ([14]; 20 g/ha): 90%; Damage to ZEAMX [15]: 0%; Pre-emergence action against POLCO [16]: 80%; Post-emergence action against AMARE ([17]; 1.25 g/ha): 100%; Damage to TRZAS ([19]; 80 g a.i./ha): 60%; Damage to ORYZA [21]: 80%; Post-emergence action against ECHCG ([23]; 5 g/ha): 100%; Pre-emergence action against ECHCG ([24]; 5 g/ha): 90%; Pre-emergence action against ECHCG ([24]; 80 g/ha): 100%
Cc1nnc(NC(=O)c2ccc(C(F)F)c([S+](C)[O-])c2Cl)o1 (stereo in doubt) [Example I-6, 2-chloro-N-(5-methyl-1,3,4-oxadiazol-2-yl)-3-[(S)-methylsulfinyl]-4-(difluoromethyl)benzamide]	90	90	90	100	100	100	90	100	80	100	100	90	100	90	90	100	100	100	100	90	Post-emergence action against VERPE ([1]; 5 g/ha): 90%; Herbicidal action against VIOTR ([8]; 5 g a.i./ha): 80%; Herbicidal action against VIOTR ([8]; 20 g a.i./ha): 100%; Pre-emergence action against VERPE ([25]; 20 g/ha): 90%; Pre-emergence action against VERPE ([25]; 80 g/ha): 100%; Damage to GLXMA [26]: 40%; Post-emergence action against DIGSA ([27]; 5 g/ha): 90%; Post-emergence action against DIGSA ([27]; 20 g/ha): 90%; Damage to ZEAMX ([12]; 80 g a.i./ha): 20%; Damage to BRSNW [28]: 40%; Damage to TRZAS ([19]; 5 g a.i./ha): 20%; Pre-emergence action against DIGSA ([29]; 20 g/ha): 100%; Pre-emergence action against DIGSA ([29]; 80 g/ha): 100%; Herbicidal action against SETVI ([20]; 5 g a.i./ha, comparative experiment): 100%; Herbicidal action against ECHCG ([23]; 20 g a.i./ha, comparative experiment): 100%; Pre-emergence action against ECHCG ([24]; 80 g/ha): 100%
